{"source": "patent US12528814B2", "about": "“Bifunctional degraders of interleukin-1 receptor-associated kinases and therapeutic use thereof” (NURIX THERAPEUTICS, INC., priority 2020, dated 2026)", "key": {"[1]": {"target": "T1, IRAK4 (Homo sapiens (Human), UniProt Q9NWZ3)", "experiment": "IRAK4 Biochemical HTRF Kinase Assay", "settings": "read-out: IRAK4 HTRF biochemical: IC50", "how_it_was_run": "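HTRF KinEASE STK S1 format measuring IRAK4 phosphorylation of biotinylated peptide; reaction solution of 5 μM STK-S1, 10 mM ATP, 10 mM MgCl2 added (stock, to 10 μl final), 90 min at ambient temperature, detection 60 min. IC50 from sixteen-point duplicate curves by non-linear regression.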"}, "[2]": {"target": "T1, IRAK4", "experiment": "IRAK4 Degradation HiBiT Assay", "settings": "HiBiT-tagged Jurkat cells, 4 hrs; for Dmax: Jurkat; for DC50: read-out: Cellular IRAK4 HiBiT: DC50"}, "[3]": {"settings": "read-out: Cellular IRAK4 HiBiT: Dmax, Table 4"}, "[4]": {"settings": "read-out: Cellular IRAK4 HiBiT: Dmax, Table 5, multiple runs"}}, "note": "Where two headings read alike, the source gives them in different places.", "data": [{"molecule": "CC(C)Nc1cc(-c2ccc3cc(C#N)cnn23)ncc1-c1nnc(N2CCN(CCCCc3cccc4c3CN(C3CCC(=O)NC3=O)C4=O)CC2)s1", "note": "(stereo not drawn) [Example 28, 7-(5-(5-(4-(4-(2-(2,6-dioxopiperidin-3-yl)-1-oxoisoindolin-4-yl)butyl)piperazin-1-yl)-1,3,4-thiadiazol-2-yl)-4-(isopropylamino)pyridin-2-yl)pyrrolo[1,2-b]pyridazine-3-carbonitrile]", "values": [{"measurement": "IC50", "setting": "[1]; Table 4", "result": 0.4, "unit": "nM"}, {"measurement": "IC50", "setting": "[1]; Table 5, multiple runs", "result": 0.5, "unit": "nM"}, {"measurement": "Dmax", "setting": "[2]; [3]", "result": 70, "unit": "%"}, {"measurement": "Dmax", "setting": "[2]; [4]", "result": 70, "unit": "%"}, {"measurement": "DC50", "setting": "[2]; Table 4", "result": 53, "unit": "nM"}, {"measurement": "DC50", "setting": "[2]; Table 5, multiple runs", "result": 53.1, "unit": "nM"}]}, {"molecule": "CNc1cc(-c2ccc3cc(C#N)cnn23)ncc1-c1nnc(N2CCC(C(=O)N3CCN(Cc4ccc5c(c4)C(=O)N(C4CCC(=O)NC4=O)C5=O)CC3)CC2)s1", "note": "(stereo not drawn) [Example 157, 7-(5-(5-(4-(4-((2-(2,6-dioxopiperidin-3-yl)-1,3-dioxoisoindolin-5-yl)methyl)piperazine-1-carbonyl)piperidin-1-yl)-1,3,4-thiadiazol-2-yl)-4-(methylamino)pyridin-2-yl)pyrrolo[1,2-b]pyridazine-3-carbonitrile]", "values": [{"measurement": "IC50", "setting": "[1]; Table 5, multiple runs", "result": 1, "unit": "nM"}, {"measurement": "Dmax", "setting": "[2]; [4]", "result": 104, "unit": "%"}, {"measurement": "DC50", "setting": "[2]; Table 5, multiple runs", "result": 17.6, "unit": "nM"}]}, {"molecule": "CNc1cc(-c2ccc3cc(C#N)cnn23)ncc1-c1nnc(N2CCCC3(CN(C(=O)c4ccc5c(c4)C(=O)N(C4CCC(=O)NC4=O)C5=O)C3)C2)s1", "note": "(stereo not drawn) [Example 124, 7-(5-(5-(2-(2-(2,6-dioxopiperidin-3-yl)-1,3-dioxoisoindoline-5-carbonyl)-2,6-diazaspiro[3.5]nonan-6-yl)-1,3,4-thiadiazol-2-yl)-4-(methylamino)pyridin-2-yl)pyrrolo[1,2-b]pyridazine-3-carbonitrile]", "values": [{"measurement": "IC50", "setting": "[1]; Table 5, multiple runs", "result": 1.9, "unit": "nM"}, {"measurement": "DC50", "setting": "[2]; Table 5, multiple runs", "result": "> 9980", "unit": "nM"}]}, {"molecule": "CNc1cc(-c2ccc3cc(C#N)cnn23)ncc1-c1nnc(C2CCC(NC(=O)C[C@H](NC(=O)[C@@H]3C[C@@H](O)CN3C(=O)[C@@H](NC(=O)C3(F)CC3)C(C)(C)C)c3ccccc3)CC2)s1", "note": "(stereo partly drawn) [Example 149, (2S,4R)—N—((S)-3-(((1r,4S)-4-(5-(6-(3-cyanopyrrolo[1,2-b]pyridazin-7-yl)-4-(methylamino)pyridin-3-yl)-1,3,4-thiadiazol-2-yl)cyclohexyl)amino)-3-oxo-1-phenylpropyl)-1-((S)-2-(1-fluorocyclopropane-1-carboxamido)-3,3-dimethylbutanoyl)-4-hydroxypyrrolidine-2-carboxamide]", "values": [{"measurement": "IC50", "setting": "[1]; Table 5, multiple runs", "result": 0.8, "unit": "nM"}, {"measurement": "DC50", "setting": "[2]; Table 5, multiple runs", "result": "> 9980", "unit": "nM"}]}, {"molecule": "Cc1ncsc1-c1ccc([C@H](C)NC(=O)[C@@H]2C[C@@H](O)CN2C(=O)[C@@H](NC(=O)CCOCCOCCOCCOCCOCCC(=O)N2CCN(c3nnc(-c4cnc(-c5ccc6cc(C#N)cnn56)cc4NC(C)C)s3)CC2)C(C)(C)C)cc1", "note": "[Example 41, (2S,4R)-1-((S)-2-(tert-butyl)-22-(4-(5-(6-(3-cyanopyrrolo[1,2-b]pyridazin-7-yl)-4-(isopropylamino)pyridin-3-yl)-1,3,4-thiadiazol-2-yl)piperazin-1-yl)-4,22-dioxo-7,10,13,16,19-pentaoxa-3-azadocosanoyl)-4-hydroxy-N—((S)-1-(4-(4-methylthiazol-5-yl)phenyl)ethyl)pyrrolidine-2-carboxamide]", "values": [{"measurement": "IC50", "setting": "[1]; Table 4", "result": 1.3, "unit": "nM"}, {"measurement": "IC50", "setting": "[1]; Table 5, multiple runs", "result": 1.3, "unit": "nM"}, {"measurement": "Dmax", "setting": "[2]; [3]", "result": 44, "unit": "%"}, {"measurement": "Dmax", "setting": "[2]; [4]", "result": 47, "unit": "%"}, {"measurement": "DC50", "setting": "[2]; Table 4", "result": 872, "unit": "nM"}, {"measurement": "DC50", "setting": "[2]; Table 5, multiple runs", "result": 1330, "unit": "nM"}]}, {"molecule": "CC(C)Nc1cc(-c2ccc3cc(C#N)cnn23)ncc1-c1nnc(N2CCN(C(=O)CNc3cccc4c3C(=O)N(C3CCC(=O)NC3=O)C4=O)CC2)s1", "note": "(stereo not drawn) [Example 31, 7-(5-(5-(4-((2-(2,6-dioxopiperidin-3-yl)-1,3-dioxoisoindolin-4-yl)glycyl)piperazin-1-yl)-1,3,4-thiadiazol-2-yl)-4-(isopropylamino)pyridin-2-yl)pyrrolo[1,2-b]pyridazine-3-carbonitrile]", "values": [{"measurement": "IC50", "setting": "[1]; Table 4", "result": 1.8, "unit": "nM"}, {"measurement": "IC50", "setting": "[1]; Table 5, multiple runs", "result": 1.7, "unit": "nM"}, {"measurement": "Dmax", "setting": "[2]; [3]", "result": 39, "unit": "%"}, {"measurement": "Dmax", "setting": "[2]; [4]", "result": 39, "unit": "%"}, {"measurement": "DC50", "setting": "[2]; Table 4", "result": 106, "unit": "nM"}, {"measurement": "DC50", "setting": "[2]; Table 5, multiple runs", "result": 105, "unit": "nM"}]}, {"molecule": "CNc1cc(-c2ccc3cc(C#N)cnn23)ncc1-c1nnc([C@H]2CC[C@H](N(C)CC3CCN(c4ccc(C(=O)N(C)C5CCC(=O)NC5=O)cc4)CC3)CC2)s1", "note": "(stereo partly drawn) [Example 189, 4-(4-((((1r,4r)-4-(5-(6-(3-cyanopyrrolo[1,2-b]pyridazin-7-yl)-4-(methylamino)pyridin-3-yl)-1,3,4-thiadiazol-2-yl)cyclohexyl)(methyl)amino)methyl)piperidin-1-yl)-N-(2,6-dioxopiperidin-3-yl)-N-methylbenzamide]", "values": [{"measurement": "IC50", "setting": "[1]; Table 5, multiple runs", "result": 0.3, "unit": "nM"}, {"measurement": "Dmax", "setting": "[2]; [4]", "result": 62, "unit": "%"}, {"measurement": "DC50", "setting": "[2]; Table 5, multiple runs", "result": 192, "unit": "nM"}]}, {"molecule": "CNc1cc(-c2ccc3cc(C#N)cnn23)ncc1-c1nnc(N2CCN(C(=O)C3CCN(c4cccc5c4C(=O)N(C4CCC(=O)NC4=O)C5=O)CC3)CC2)s1", "note": "(stereo not drawn) [Example 89, 7-(5-(5-(4-(1-(2-(2,6-dioxopiperidin-3-yl)-1,3-dioxoisoindolin-4-yl)piperidine-4-carbonyl)piperazin-1-yl)-1,3,4-thiadiazol-2-yl)-4-(methylamino)pyridin-2-yl)pyrrolo[1,2-b]pyridazine-3-carbonitrile]", "values": [{"measurement": "IC50", "setting": "[1]; Table 5, multiple runs", "result": 0.9, "unit": "nM"}, {"measurement": "DC50", "setting": "[2]; Table 5, multiple runs", "result": "> 9980", "unit": "nM"}]}, {"molecule": "Cc1ncsc1-c1ccc(CNC(=O)[C@@H]2C[C@@H](O)CN2C(=O)C(NC(=O)[C@H]2CC[C@H](C(=O)N3CCN(c4nnc(-c5cnc(-c6ccc7cc(C#N)cnn67)cc5NC(C)C)s4)CC3)CC2)C(C)(C)C)cc1", "note": "(stereo partly drawn) [Example 45, (2S,4R)-1-((S)-2-((1r,4S)-4-(4-(5-(6-(3-cyanopyrrolo[1,2-b]pyridazin-7-yl)-4-(isopropylamino)pyridin-3-yl)-1,3,4-thiadiazol-2-yl)piperazine-1-carbonyl)cyclohexane-1-carboxamido)-3,3-dimethylbutanoyl)-4-hydroxy-N-(4-(4-methylthiazol-5-yl)benzyl)pyrrolidine-2-carboxamide]", "values": [{"measurement": "IC50", "setting": "[1]; Table 4", "result": 19, "unit": "nM"}, {"measurement": "IC50", "setting": "[1]; Table 5, multiple runs", "result": 19, "unit": "nM"}, {"measurement": "Dmax", "setting": "[2]; [3]", "result": 67, "unit": "%"}, {"measurement": "Dmax", "setting": "[2]; [4]", "result": 83, "unit": "%"}, {"measurement": "DC50", "setting": "[2]; Table 4", "result": 4330, "unit": "nM"}, {"measurement": "DC50", "setting": "[2]; Table 5, multiple runs", "result": 2490, "unit": "nM"}]}, {"molecule": "CNc1cc(-c2ccc3cc(C#N)cnn23)ncc1-c1nnc(N2CCC(N3CCN(C(=O)c4ccc5c(c4)C(=O)N(C4CCC(=O)NC4=O)C5=O)CC3)CC2)s1", "note": "(stereo not drawn) [Example 186, 7-(5-(5-(4-(4-(2-(2,6-dioxopiperidin-3-yl)-1,3-dioxoisoindoline-5-carbonyl)piperazin-1-yl)piperidin-1-yl)-1,3,4-thiadiazol-2-yl)-4-(methylamino)pyridin-2-yl)pyrrolo[1,2-b]pyridazine-3-carbonitrile]", "values": [{"measurement": "IC50", "setting": "[1]; Table 5, multiple runs", "result": 0.3, "unit": "nM"}, {"measurement": "Dmax", "setting": "[2]; [4]", "result": 96, "unit": "%"}, {"measurement": "DC50", "setting": "[2]; Table 5, multiple runs", "result": 17.1, "unit": "nM"}]}, {"molecule": "CC(C)Nc1cc(-c2ccc3cc(C#N)cnn23)ncc1-c1nnc(N2CCN(C3CCN(C[C@H]4CCN(c5ccc6c(c5)C(=O)N(C5CCC(=O)NC5=O)C6=O)C4)CC3)CC2)s1", "note": "(stereo partly drawn) [Example 17, 7-(5-(5-(4-(1-(((3R)-1-(2-(2,6-dioxopiperidin-3-yl)-1,3-dioxoisoindolin-5-yl)pyrrolidin-3-yl)methyl)piperidin-4-yl)piperazin-1-yl)-1,3,4-thiadiazol-2-yl)-4-(isopropylamino)pyridin-2-yl)pyrrolo[1,2-b]pyridazine-3-carbonitrile]", "values": [{"measurement": "IC50", "setting": "[1]; Table 4", "result": 1.4, "unit": "nM"}, {"measurement": "IC50", "setting": "[1]; Table 5, multiple runs", "result": 1.4, "unit": "nM"}, {"measurement": "Dmax", "setting": "[2]; [3]", "result": 69, "unit": "%"}, {"measurement": "Dmax", "setting": "[2]; [4]", "result": 77, "unit": "%"}, {"measurement": "DC50", "setting": "[2]; Table 4", "result": 139, "unit": "nM"}, {"measurement": "DC50", "setting": "[2]; Table 5, multiple runs", "result": 168, "unit": "nM"}]}]}
